The values below are quoted from earlier work in patent US20140128375A1, “B[…] AS CGRP RECEPTOR ANTAGONISTS” (priority 2006, published 2014).

Molecules are shown by their SMILES.

This data set concerns CGRP. The settings on record: marmoset, electrical stimulation of the trigeminal ganglion.

On to `NCCCC[C@H](NC(=O)[C@@H](Cc1cc(Br)c(O)c(Br)c1)NC(=O)N1CCC(N2Cc3ccccc3NC2=O)CC1)C(=O)N1CCN(c2ccncc2)CC1` [BIBN4096BS], for which the “effect on increase in facial blood flow” value is recorded as “could be blocked”.
